Experimental findings from patent publication US10765680B2, “Combination of a MCL-1 inhibitor and a taxane compound, uses and pharmaceutical compositions thereof” (priority 2017, dated 2020) are described below.

The subject of test [1] is BT-20 breast cancer cell line. The experiment in a line: 72 hours CellTiter-Glo proliferation assay, BT-20. Type of test: cell-based. The conditions noted are these: single agent, read-out: Abs IC50. The procedure:
(§1) Compounds were dissolved in 100% DMSO (Sigma, Catalog # D2438-50 ML) at a stock concentration of 10 mM and stored at −20° C. until use. Compounds were arrayed in 2 ml deep 96-well plates (Greiner bio-one, catalog number 780271) serially diluted 3-fold. Compound 1 was used over a concentration range of 0.0-10.0 μM. Paclitaxel was used over a concentration range of 0.0-1.0 μM in breast cancer cells and 0.0-2.0 μM range in lung cancer cells.
(§2) All cell lines were purchased from the American Type Culture Collection and cultured according to vendor recommendations. […] All cell lines were determined to be free of mycoplasma contamination by a PCR detection assay performed at Idexx Radil (Columbia, Mo., USA) and authenticated by SNP analysis. […] Cells were expanded to T-75 flasks and assessed for viability using a Beckman-Coulter ViCell counter prior to plating. […]
(§3) Cell proliferation was measured in 72 hours CellTiter-Glo™ (CTG) assays and all results shown are the result of at least triplicate measurements. […] After 72 hours of compound treatment the effects of compounds on cell proliferation was determined using the CellTiter-Glo™ Luminescent Cell Viability Assay (Promega, Catalog # G7573). This is a homogeneous method to determine the number of viable cells in culture based on quantitation of the ATP present, which signals the presence of metabolically active cells. […]

For test [2], the system named is BT-474 breast cancer cell line. The test is described as follows: 72 hours CellTiter-Glo proliferation assay, BT-474. The format is cell-based. Conditions: single agent, read-out: Abs IC50. Here is the method: as §1, §2, §3
A general note: In ATP-based viability assays light output follows the ATP content of the culture.

Test [3] deals with Cal-148 breast cancer cell line. The test is described as follows: 72 hours CellTiter-Glo proliferation assay, Cal-148. Type of test: cell-based. The conditions noted are these: single agent, read-out: Abs IC50. Here is the method:
as §1, §2, §3

Test [4] deals with HCC1395 breast cancer cell line. The test is described as follows: 72 hours CellTiter-Glo proliferation assay, HCC1395. Type of test: cell-based. The conditions noted are these: single agent, read-out: Abs IC50. Here is the method:
as §1, §2, §3

Test [5] has as its system HCC1937 breast cancer cell line. The experiment in a line: 72 hours CellTiter-Glo proliferation assay, HCC1937. Conditions: single agent, read-out: Abs IC50. Type of test: cell-based. The procedure:
as §1, §2, §3

Test [6] has as its system HCC1954 breast cancer cell line. The experiment in a line: 72 hours CellTiter-Glo proliferation assay, HCC1954. The format is cell-based. Conditions: single agent, read-out: Abs IC50. Here is the method:
as §1, §2, §3

Test [7] concerns HCC38 breast cancer cell line. The test is described as follows: 72 hours CellTiter-Glo proliferation assay, HCC38. The format is cell-based. The conditions noted are these: single agent, read-out: Abs IC50. The procedure:
as §1, §2, §3

In test [8] the test system is A549 lung cancer cell line. The experiment in a line: 72 hours CellTiter-Glo proliferation assay, A549. The format is cell-based. Conditions: single agent, read-out: Abs IC50. The procedure:
as §1, §2, §3

The next test deals with TNBC 110T PDX model. The experiment in a line: TNBC 110T PDX model, tumor growth and survival (Compound 1, docetaxel). Type of test: in vivo, NOD-SCID-IL2Rγc−/− female mice. Conditions: Compound 1 15 mg/kg i.v. twice weekly for six weeks. Here is the method: A cohort of 40 female NSG mice was seeded with thawed single cell suspensions of early passage human breast tumors (TNBC PDX110). Briefly, 100,000 cells were resuspended in 10 μl of transplantation buffer (50% fetal calf serum, 10% of a 0.04% trypan blue solution and 40% PBS) and growth-factor-reduced Matrigel [BD] at a ratio of 3:1, and injected into the cleared mammary fat pads of 3- or 4-week-old NOD-SCID-IL2Rγc^−/− female mice. […] Once tumors reached a volume of 60-110 mm^3, mice were randomized into treatment arms and treatment commenced. Docetaxel or its vehicle was prepared by dissolving stock solution (20 mg/ml) with PBS and injected i.p. every 21 days for two treatment cycles. The duration of therapy is indicated by the bar. […] Compound 1 (15 mg/kg) or its vehicle was injected i.v. twice weekly for six weeks. Mice were sacrificed at the first measurement where tumor volume exceeded 600 mm^3, or if their health deteriorated for reasons other than disease progression or drug toxicity (censored event). n=9-10 mice per treatment group.

Test [9] concerns TNBC PDX model OD-BRE-00589. The test is described as follows: TNBC PDX model OD-BRE-00589, antitumor activity. Conditions: Compound 1 70 mg/kg iv once, liposomal formulation. The format is in vivo, female SCID mice. The procedure: Docetaxel was formulated in 5% ethanol, 5% PS80 and 90% Glucose at 0.67 mg/ml to administer 10 mg/kg. […] OD-BRE-00589 is a triple negative breast cancer PDX, obtained from the IMODI consortium. […] It was grafted on SCID mice as fragments of 27 mm^3 volume. […] The administrations were performed once in the caudal vein.

As usually defined, the IC50 is the midpoint of a concentration-inhibition curve. As for `COc1ccccc1-c1nccc(COc2ccccc2C[C@@H](Oc2ncnc3sc(-c4ccc(F)cc4)c(-c4ccc(OCCN5CCN(C)CC5)c(Cl)c4C)c23)C(=O)O)n1` [Compound 1, (2R)-2-{[(5Sa)-5-{3-chloro-2-methyl-4-[2-(4-methylpiperazin-1-yl)ethoxy]phenyl}-6-(4-fluorophenyl)thieno[2,3-d]pyrimidin-4-yl]oxy}-3-(2-{[2-(2-methoxyphenyl)pyrimidin-4-yl]methoxy}phenyl)propanoic acid], the half-inhibitory concentration (IC50) in test [1] turned out to be 653 nM; in [2], 1260 nM; in test [3], 1330 nM; in test [4], 9920 nM; in [5], 137 nM; in [6] it was 158 nM. For the same molecule, the half-inhibitory concentration (IC50) in [7] is 3380 nM; in [8] it was over 10000 nM. The “inhibition of tumor growth, single agent” value (in the test on TNBC 110T PDX model; in [9]) was “insufficient in inhibiting tumor growth” each time.
